Results reported in US9738684B2, “N-terminally modified linear and branched polyamine conjugated peptidomimetics as antimicrobials agents” (COUNCIL OF SCIENTIFIC & INDUSTRIAL RESEARCH, priority 2015, dated 2017).
Values after ≈ are worked out from the molar mass of the structure shown.

Key:
S. aureus (ATCC 29213) = assay: MIC, serial broth dilution; type: cell-based, Staphylococcus aureus; details: MHB, 18 h, 37° C.
Procedure: (§1) The peptidomimetics designed in present invention were evaluated as antibacterial therapeutics against a broad range of bacterial strains by broth microdilution method. The antibacterial activity of the peptidomimetics was reported in terms of the minimum inhibitory concentrations (MIC).
(§2) Following bacterial strains were used in this study: S. aureus (ATCC 29213), methicillin resistant S. aureus (ATCC 33591), Staphylococcus epidermidis (ATCC 12228), methicillin resistant Staphylococcus epidermidis(ATCC 51625), Enterococcus faecalis (ATCC 7080), Escherichia coli (ATCC 11775), and Acinetobacter baumannii (ATCC 19606). Antibacterial activity was evaluated using a modified serial broth dilution method in accordance with Clinical Laboratory Standard Institute guidelines [Methods for dilution antimicrobial susceptibility tests for bacteria that grow aerobically-7th ed. Approved standard M7-A7. Clinical and Laboratory Standards Institute, Wayne, Pa., Biochim. Biophys. Acta 1798:1864-1875, 2010.]. Briefly, the inoculums were prepared from mid-log phase bacterial cultures. Peptidomimetics were incubated with bacterial suspension in Muller Hinton broth media (10^5 CFU/mL) in 96 well microtitre plate. The plates were incubated overnight with agitation (200 rpm) at 37° C. After 18 h, absorbance was measured at 630 nm. Cultures without test peptidomimetics were used as positive control. Un-inoculated Mueller Hinton Broth (MHB) was used as negative control. Tests were carried out in duplicate on at least three different days. […] For comparison standard peptide antibiotics vancomycin (VAN) and polymyxin B (PMB) were also assayed under identical conditions (Table 2). […] Further, antibacterial activity of active peptidomimetics 1c and 1d were also evaluated against MRSA in presence of 25% v/v human serum as well as bovine serum.

[1] = system: methicillin resistant S. aureus (ATCC 33591); assay: MIC, serial broth dilution; type: cell-based, Staphylococcus aureus; details: MHB, 18 h, 37° C.
Procedure: as §1, §2

[2] = system: Acinetobacter baumannii (ATCC 19606); assay: MIC, serial broth dilution; type: cell-based; details: MHB, 18 h, 37° C.
Procedure: as §1, §2

[3] = system: Enterococcus faecalis (ATCC 7080); assay: MIC, serial broth dilution; type: cell-based; details: MHB, 18 h, 37° C.
Procedure: as §1, §2

[4] = system: Staphylococcus epidermidis (ATCC 12228); assay: MIC, serial broth dilution; type: cell-based; details: MHB, 18 h, 37° C.
Procedure: as §1, §2

[5] = system: methicillin resistant Staphylococcus epidermidis (ATCC 51625); assay: MIC, serial broth dilution; type: cell-based; details: MHB, 18 h, 37° C.
Procedure: as §1, §2

[6] = system: Escherichia coli (ATCC 11775); assay: MIC, serial broth dilution; type: cell-based; parameters: MIC E. coli. (ATCC 11775): unit not given here; details: MHB, 18 h, 37° C.
Procedure: as §1, §2

[7] = system: human red blood cells (hRBC); assay: Hemolytic activity; type: cell-based; details: 250 μg/mL, 1 h at 37° C.
Procedure: Hemolytic activity of the peptidomimetics was evaluated on human red blood cells (hRBC) as described previously with minor modifications [FEBS J, 273:4040-4054, 2006; Biochim Biophys Acta., 1798:1864-1875, 2010]. Briefly, 100 μL of fresh hRBC suspension 4% v/v in NaCl/Pi (35 mM phosphate buffer, 150 mM NaCl, pH 7.2) was placed in a 96-well plate. After incubation of the peptidomimetics (100 μL) in the hRBC suspension for 1 h at 37° C., the plates were centrifuged and supernatant (100 μL) was transferred to fresh 96-well plate. Absorbance was read at 540 nm using ELISA plate reader (Molecular Devices). Percent hemolysis was calculated using the following formula: % hemolysis=100[(A−A0)/(At−A0)]
Where, A represents absorbance of sample wells at 540 nm. Also A0 and At represents 0% and 100% hemolysis determined in NaCl/Pi and 1% Triton X-100, respectively (Table 2). […] Peptidomimetics 1e and 1f caused 31% and 30% hemolysis at 250 μg/mL. Peptidomimetics 2d, 2e and 2f caused significant hemolysis with 83%, 96% and 88% damage to hRBCs at […] respectively.

MRSA = assay: Membrane depolarization with DiSC3(5) dye; type: cell-based, Staphylococcus aureus; details: up to the highest concentration tested
Procedure: For determination of membrane depolarizing ability of designed peptidomimetics, a membrane potential sensitive dye DiSC3(5) was used as described previously with minor modifications [Org Biomol. Chem. 10: 8326-8335, 2012; J. Am. Chem. Soc., 132: 18417-18428, 2010.]. Briefly, overnight grown MRSA was sub cultured into MHB for 2-3 h at 37° C. to obtain mid-log phase cultures. The cells were centrifuged at 4000 rpm for 10 min at 25° C., washed, and re-suspended into respiration buffer (5 mM HEPES, 20 mM glucose, pH 7.4) to obtain a diluted suspension of OD600˜0.05. Then DiSC3(5) [0.18 μM in DMSO], was added to 500 μL aliquotes of the re-suspended cells and allowed to stabilize for 1 h. Baseline fluorescence was acquired using a Edinburg F900 spectrofluorometer by excitation at 622 nm and emission at 670 nm in a 1 cm path length cuvette. Bandwidth of 5 nm was employed for excitation and emission. Subsequently, increasing concentrations of test peptidomimetics were added to the stabilized cells and the increase of fluorescence on account of the de-quenching of DiSC3(5) dye was measured after every 2 min to obtain the maximal depolarization. Increase in relative fluorescence unit (RFU) was plotted against increasing concentrations of different peptidomimetics or PMB. […] The increase in fluorescence for lipid tagged peptidomimetics was concentration dependent up to 9.9 μg/mL and henceforth, got saturated resulting into plateau like dose response curves. The experiment was repeated twice on two consecutive days and produced similar results.

all the tested strains = assay: Antibacterial activity; type: cell-based; details: series 2
Procedure: as §2

S. aureus (ATCC 33591) = assay: Resistance development study, serial passage at sub MIC; type: cell-based, Staphylococcus aureus; details: 17 serial passages at sub MIC
Procedure: FIG. 5: Illustration of resistance development study in S. aureus (ATCC 33591) after 17 serial passages with sub MIC of 1c/1d or antibiotic treatment. The fold change in MIC is the ratio of the MIC after 17 passages relative to that MIC observed before first passage.
To determine potential of active peptidomimetics against resistance development, in vitro serial passage method at sub inhibitory concentration was done. Briefly, bacterial suspension (100 μL) from duplicate wells at the concentration of sub-MIC was used to inoculate fresh culture. The culture was grown to obtain approximately 10^5 CFU/mL for the next experiment. These bacterial suspensions were then incubated with desired concentration of antibacterial agents for 18 h to determine new MIC. The same sub culturing protocol was used for next 16 passages and MIC was determined using OD630 nm as described previously in the text [Chem. Biol., 20:1286-1295, 2013.]

[8] = system: Gram-negative bacterial strains; assay: Antibacterial activity; type: cell-based
Procedure: as §2

Staphylococcus species = assay: Antibacterial activity; type: cell-based
Procedure: as §2

| Compound | MIC S. aureus (ATCC 29213) (S. aureus (ATCC 29213)) | MIC MRSA (ATCC 33591) [1] | MIC A. baumannii (ATCC 19606) [2] | MIC E. facaelis (ATCC 7080) [3] | MIC S. epidermidis (ATCC 12228) [4] | MIC MRSE (ATCC 51625) [5] | MIC E. coli. (ATCC 11775) [6] | % H, percentage hemolysis of human RBCs [7] | change in relative fluorescence unit (RFU), membrane depolarization (MRSA) | antibacterial activity (all the tested strains) | increase in MIC after 17 passages (S. aureus (ATCC 33591)) | growth inhibition of Gram-negative bacterial strains [8] | activity against Staphylococcus species (Staphylococcus species) |
| --- | --- | --- | --- | --- | --- | --- | --- | --- | --- | --- | --- | --- | --- |
| CCCCCCCCCCCC(=O)NC(Cc1c[nH]c2ccccc12)C(=O)NC(Cc1c[nH]c2ccccc12)C(=O)NCCCNCCCCNCCCN (stereo not shown) [1e] | 0.0017 µg/mL (≈ 0.00225 µM) | 3.5 µg/mL (≈ 4.62 µM) | 0.0568 µg/mL (≈ 0.075 µM) | 0.0071 µg/mL (≈ 0.00938 µM) | 1.7 µg/mL (≈ 2.25 µM) | 0.0017 µg/mL (≈ 0.00225 µM) | 14.2 | 31% | significant changes in RFU | – | – | – | – |
| CCCCCCCCCCCC(=O)NCCCN(CCCCN(CCCN)C(=O)C(N)Cc1c[nH]c2ccccc12)C(=O)C(N)Cc1c[nH]c2ccccc12 (stereo not shown) [2e] | 0.0008 µg/mL (≈ 0.00106 µM) | 1.7 µg/mL (≈ 2.25 µM) | 0.1136 µg/mL (≈ 0.15 µM) | 0.0071 µg/mL (≈ 0.00938 µM) | 0.8 µg/mL (≈ 1.06 µM) | 0.0017 µg/mL (≈ 0.00225 µM) | 28.4 | 96% | significant changes in RFU | – | – | – | – |
| NCCCN(CCCCN(CCCNC(=O)C=Cc1ccc(O)c(O)c1)C(=O)C(N)Cc1c[nH]c2ccccc12)C(=O)C(N)Cc1c[nH]c2ccccc12 (stereo not shown) [2b] | >0.4544 µg/mL | 454.4 µg/mL (≈ 617 µM) | – | – | – | – | >454.4 | 5% | – | poor activity | – | – | – |
| CCCCCC=CCC=CCCCCCCCC(=O)NCCCN(CCCCN(CCCN)C(=O)C(N)Cc1c[nH]c2ccccc12)C(=O)C(N)Cc1c[nH]c2ccccc12 (stereo not shown) [2f] | 0.0008 µg/mL (≈ 0.000956 µM) | 3.5 µg/mL (≈ 4.18 µM) | 0.0568 µg/mL (≈ 0.0678 µM) | 0.0142 µg/mL (≈ 0.017 µM) | 0.8 µg/mL (≈ 0.956 µM) | 0.0017 µg/mL (≈ 0.00203 µM) | 28.4 | 88% | significant changes in RFU | – | – | – | – |
| NCCCN(CCCCN(CCCN)C(=O)C(N)Cc1c[nH]c2ccccc12)C(=O)C(N)Cc1c[nH]c2ccccc12 (stereo not shown) [2a] | >0.4544 µg/mL | >227.2 µg/mL | – | – | >454.4 µg/mL | 0.2272 µg/mL (≈ 0.395 µM) | >454.4 | 0% | only minor increase | poor activity | – | – | – |
| O=C(O)c1cn(C2CC2)c2cc(N3CCNCC3)c(F)cc2c1=O [ciprofloxacin, reference compound] | – | – | – | – | – | – | – | – | – | – | 256 fold | – | – |
| CCCCCC=CCC=CCCCCCCCC(=O)NC(Cc1c[nH]c2ccccc12)C(=O)NC(Cc1c[nH]c2ccccc12)C(=O)NCCCNCCCCNCCCN (stereo not shown) [1f] | 0.0071 µg/mL (≈ 0.00848 µM) | 3.5 µg/mL (≈ 4.18 µM) | – | 0.0284 µg/mL (≈ 0.0339 µM) | 1.7 µg/mL (≈ 2.03 µM) | 0.0071 µg/mL (≈ 0.00848 µM) | 28.4 | 30% | significant changes in RFU | – | – | – | – |
| NCCCNCCCCNCCCNC(=O)C(Cc1c[nH]c2ccccc12)NC(=O)C(Cc1c[nH]c2ccccc12)NC(=O)C=Cc1ccc(O)c(O)c1 (stereo not shown) [1b] | 0.0035 µg/mL (≈ 0.00475 µM) | 7.1 µg/mL (≈ 9.63 µM) | – | 0.1136 µg/mL (≈ 0.154 µM) | 3.5 µg/mL (≈ 4.75 µM) | 0.0071 µg/mL (≈ 0.00963 µM) | 14.2 | 16% | – | – | – | – | – |
| NCCCN(CCCCN(CCCNC(=O)Cc1ccc(C(F)(F)F)cc1)C(=O)C(N)Cc1c[nH]c2ccccc12)C(=O)C(N)Cc1c[nH]c2ccccc12 (stereo not shown) [2c] | 0.0142 µg/mL (≈ 0.0187 µM) | 28.4 µg/mL (≈ 37.3 µM) | 0.1136 µg/mL (≈ 0.149 µM) | – | 7.1 µg/mL (≈ 9.33 µM) | 0.0142 µg/mL (≈ 0.0187 µM) | 113.6 | 1% | only marginal changes in RFU | moderate activity | – | – | – |
| polymyxin B [PMB, reference compound] | 0.0142 µg/mL | 28.4 µg/mL | – | 0.1136 µg/mL | 7.1 µg/mL | 0.0284 µg/mL | 0.4 | – | – | – | – | excellent growth inhibition | relatively poor activity |
| CCCCCCCCCC(=O)NCCCN(CCCCN(CCCN)C(=O)C(N)Cc1c[nH]c2ccccc12)C(=O)C(N)Cc1c[nH]c2ccccc12 (stereo not shown) [2d] | 0.0008 µg/mL (≈ 0.0011 µM) | 1.7 µg/mL (≈ 2.33 µM) | 0.1136 µg/mL (≈ 0.156 µM) | 0.0284 µg/mL (≈ 0.039 µM) | 0.8 µg/mL (≈ 1.1 µM) | 0.0017 µg/mL (≈ 0.00233 µM) | 28.4 | 83% | intermediate changes in fluorescence intensity | – | – | – | – |
